The values that follow come from ChEMBL document CHEMBL1150703, “Plants as sources of antimalarial drugs, Part 4: Activity of Brucea javanica fruits against chloroquine-resistant Plasmodium falciparum in vitro and against Plasmodium berghei in vivo” (J Nat Prod, 1987).

Data set [1] has as its system Plasmodium falciparum. As to the kind of experiment: Antimalarial activity against multidrug-resistant Plasmodium falciparum K1 infected human erythrocytes assessed by [3H]hypoxanthine uptake. Format: functional, organism-based.
Data set [2] deals with Plasmodium berghei. Nature of the data set: Antimalarial activity as reduced parasitaemia at day 4 against Plasmodium berghei N infected TSW mice (Mus musculus) perorally dosed 3 hrs post infection then daily. Format: functional. The note with it: po.
Data set [3] deals with Plasmodium berghei. Nature of the data set: Antimalarial activity as reduced parasitaemia at day 4 against Plasmodium berghei N infected TSW mice (Mus musculus) at 3 mg/kg peroral dose 3 hrs post infection then daily. The note with it: route oral. Format: functional.
A short description of data set [4]: (§1) Toxicity in Plasmodium berghei N-infected TSW mice (Mus musculus) assessed as mortality before day 5 at 9 mg/kg, perorally administered 3 hrs after infection daily for 4 consecutive days. Set-up: dose 9 mg/kg, route oral. Format: organism-based. Conditions: TSW, in vivo, po, read-out: Activity.
For data set [5], the system named is Plasmodium berghei. As to the kind of experiment: Antimalarial activity as reduced parasitaemia at day 4 against Plasmodium berghei N infected TSW mice (Mus musculus) at 9 mg/kg perorally dosed 3 hrs post infection then daily. Conditions: route oral. Format: functional.
The subject of data set [6] is Mus musculus. As to the kind of experiment: Toxicity in Plasmodium berghei N-infected TSW mice (Mus musculus) assessed as toxic deaths before day 5 at 3 mg/kg, perorally administered 3 hrs after infection daily for 4 consecutive days. Further details: dose 3 mg/kg, route oral. In kind it is organism-based. The note with it: in vivo, po.
Data set [7] concerns Mus musculus. The data set is described as §1. Conditions: in vivo, po, 3 h. Format: organism-based. Further details: dose 9 mg/kg, route oral.
Data set [8] concerns Plasmodium falciparum. Nature of the data set: Antimalarial activity against multidrug-resistant Plasmodium falciparum K1 in human erythrocytes as inhibition of [3H]hypoxanthine uptake. In kind it is functional, organism-based.

Values after ≈ are worked out from the molar mass of the structure shown.

As for `COC(=O)[C@]12OC[C@@]34[C@@H](CC5=C(C)C(=O)C(O)=C[C@]5(C)[C@H]3[C@@H](O)[C@@H]1O)OC(=O)[C@H](OC(=O)CC(C)C)[C@@H]24` [DEHYDROBRUCEINE A], the IC50 – broadly, the concentration at which inhibition is half-maximal – in the data set with Plasmodium falciparum [1] was 0.046 µg/mL (≈ 0.0884 µM).
On the same count and under the same terms, in the case of `COC(=O)[C@@]12OC[C@]34[C@H]([C@@H](O)[C@@H]1O)[C@@]1(C)CC(=O)C(O)=C(C)[C@@H]1C[C@H]3OC(=O)[C@H](OC(=O)/C=C(\C)C(C)C)[C@@H]24` [BRUCEANTIN] it was 0.0008 µg/mL (≈ 0.00146 µM).
`COC(=O)[C@@]12OC[C@]34[C@H]([C@@H](O)[C@@H]1O)[C@@]1(C)CC(=O)C(O)=C(C)[C@@H]1C[C@H]3OC(=O)[C@H](OC(C)=O)[C@@H]24` [BRUCEINE B]: the IC50 in the data set on Plasmodium falciparum [1] is 0.011 µg/mL (≈ 0.0229 µM). Besides, in the data set with Plasmodium berghei [2], the 50% effective dose (ED50) (commonly the midpoint of the dose-response relation) worked out at 0.9 mg/kg/day and the ED90 was found to be 2.82 mg/kg/day. Besides, the inhibition in vivo (usually the relative decrease from the control value, in per cent) at 3 mg/kg in the data set on Plasmodium berghei [3] came to 95%. Also, in data set [4], the mortality at 3 h turned out to be 100%.
As for `COC(=O)[C@@]12OC[C@]34[C@H]([C@@H](O)[C@@H]1O)[C@@]1(C)CC(=O)C(O)=C(C)[C@@H]1C[C@H]3OC(=O)[C@H](OC(=O)CC(C)C)[C@@H]24` [BRUCEINE A], the midpoint of inhibition with Plasmodium falciparum [1], the IC50, lay at 0.011 µg/mL (≈ 0.0211 µM). For the same compound, in the data set with Plasmodium berghei [2], the ED50 was determined as 3.36 mg/kg/day and the ED90 was 26.7 mg/kg/day. The compound also yielded an inhibition in vivo at 9 mg/kg in the data set on Plasmodium berghei [5] of 72%.
In turn, `CC1=CC(=O)[C@@H](O)[C@]2(C)[C@H]3[C@@H](O)[C@H](O)[C@]4(CO)OC[C@@]35[C@@H](C[C@@H]12)OC(=O)[C@H](O)[C@]54O` [YADANZIOLIDE A] returned an IC50 in the data set with Plasmodium falciparum [1] of 0.031 µg/mL (≈ 0.0727 µM).
`CC1=CC(=O)[C@@H](O)[C@]2(C)[C@H]3[C@@H](O)[C@H](O)[C@]4(C)OC[C@@]35[C@@H](C[C@@H]12)OC(=O)[C@H](O)[C@]54O` [BRUCEINE D] gave an IC50 in the data set with Plasmodium falciparum [1] of 0.015 µg/mL (≈ 0.0365 µM). In the data set with Plasmodium berghei [2], the ED50 was 2.79 mg/kg/day and the ED90 was determined as 8.19 mg/kg/day. This compound returned an inhibition in vivo at 3 mg/kg in the data set with Plasmodium berghei [3] of 50%. Also, the Activity result in the data set on Mus musculus [6] is listed as “Non-toxic”.
In the case of `COC(=O)[C@]12OC[C@]34[C@H]([C@@H](O)[C@@H]1O)[C@@]1(C)CC(=O)C(O)=C(C)[C@@H]1C[C@H]3OC(=O)[C@H](OC(=O)/C=C(\C)C(C)(C)O)[C@@H]24` [BRUCEINE C], half-maximal inhibition with Plasmodium falciparum [1] (IC50) required 0.005 µg/mL (≈ 0.00886 µM). For the same compound, the inhibition in vivo at 3 mg/kg in the data set with Plasmodium berghei [3] is 40%. The Activity result in the data set with Mus musculus [7] is listed as “Toxic”.
In the case of `COC(=O)[C@]12OC[C@]34[C@H]([C@@H](O)[C@@H]1O)[C@@]1(C)CC(=O)C(O)=C(C)[C@@H]1C[C@H]3OC(=O)[C@H](OC(=O)C=C(C)C)[C@@H]24` [BRUSATOL], the IC50 in the data set with Plasmodium falciparum [1] came to 0.003 µg/mL (≈ 0.00576 µM). In the data set on Plasmodium berghei [2], this compound yielded an ED50 of 1.27 mg/kg/day and an ED90 of 3.03 mg/kg/day. In the data set with Plasmodium berghei [3], this compound had an inhibition in vivo at 3 mg/kg of 98%.
In the data set on Plasmodium falciparum [1], `COC(=O)[C@]12OC[C@]34[C@H]([C@@H](O)[C@@H]1O)[C@@]1(C)CC(=O)C(O[C@@H]5O[C@H](CO)[C@@H](O)[C@H](O)[C@H]5O)=C(C)[C@@H]1C[C@H]3OC(=O)[C@H](OC(C)=O)[C@@H]24` [YADANZIOSIDE I] had an IC50 of 22 µg/mL (≈ 34.3 µM).
In the data set on Plasmodium falciparum [8], `COC(=O)[C@]12OC[C@]34[C@H]([C@@H](O)[C@@H]1O)[C@@]1(C)C=C(O[C@@H]5O[C@H](CO)[C@@H](O)[C@H](O)[C@H]5O)C(=O)[C@@H](C)[C@@H]1C[C@H]3OC(=O)[C@H](OC(C)=O)[C@@H]24` [YADANZIOSIDE F] yielded a half-inhibitory concentration (IC50) of 5 µg/mL (≈ 7.78 µM).
As for `COC(=O)[C@]12OC[C@]34[C@H]([C@@H](O)[C@@H]1O)[C@@]1(C)CC(=O)C(O)=C(C)[C@@H]1C[C@H]3OC(=O)[C@H](OC(=O)/C=C(\C)C(C)(C)OC(C)=O)[C@@H]24` [BRUCEANTINOL], the IC50 with Plasmodium falciparum [1] was determined as 0.002 µg/mL (≈ 0.0033 µM).
